Consider 63 molecules from a melting point compilation (Tetko et al.; mined from patent text by program, amines drawn as free bases though some values may be those of a salt).

On to `COC(=O)C1Cc2c(OC)cccc2N1S(=O)(=O)c1ccc(-c2ccc(F)cc2Cl)cc1` (stereo not drawn), for which the melting point amounted to 80 °C.

Molecule `O=S(=O)(c1ccc(Cl)cc1)N1CCCC1c1ccc(F)c(Cl)c1` (racemic) registered a melting point of 119 °C.

`NCCCn1ccc2cc(NC(=O)c3nc4ccc(Cl)cc4n3Cc3ccccc3)ccc21` displayed a melting point of 106 to 108 °C.

The molecule `Cn1ncc2nn(-c3cc(C(F)(F)F)ccc3F)c(=O)cc21` displayed a melting point of 190 to 195 °C.

As to `Cc1cc(C(C)(C)C)c(O)c(C)c1CC(=O)N1CCN(C(=O)Cc2c(C)cc(C(C)(C)C)c(O)c2C)CC1`, the melting point is 305 to 310 °C.

The molecule `O=C(Nc1ccc2ccccc2c1-c1c(P(=O)(c2ccccc2)c2ccccc2)ccc2ccccc12)c1ccccc1` registered a melting point of 247 °C.

As for `NC(=S)Cc1cccc(Oc2ccccc2)c1O`, the melting point amounted to 70 °C.

`COc1ccc(-c2ccc(C(C)C=O)cc2F)cc1` (stereo not drawn) displayed a melting point of 55 to 59 °C.

`O=C(CCCCCCOc1ccccc1)c1nnc(CO)o1` showed a melting point of 83 to 85 °C.

In turn, `CCCN1CCN(c2cc(-c3ccc(F)cc3F)c3c(n2)CCCCCC3)CC1` had a melting point of 108 to 109 °C.

For `O=C1CCN(c2ccc(CNC(=O)c3cccnc3Oc3ccc(F)cc3)cc2)CC1`, the melting point lay in the range of 138 to 139 °C.

For `O=C(Oc1ccc(Cl)cc1)c1ncn2c1[C@@H]1CCCN1C(=O)c1c(Cl)cccc1-2`, the melting point was in the range of 241 to 242 °C.

Molecule `Cc1cc(F)c([N+](=O)[O-])cc1[N+](=O)[O-]` displayed a melting point of 76 °C.

Turning to `CN1C(=O)C=C(c2ccccc2)C1(C)O` (stereo not drawn), the melting point fell in the range of 148 to 152 °C.

As to `Cc1cccc2c(Cl)c(CCCl)nnc12`, the melting point was in the range of 102 to 104 °C.

`C[C@@H]1Cc2ccsc2[C@H](C)N1CCNC(=O)c1ccccn1` (relative stereo) showed a melting point of 116 to 120 °C.

`Cc1cccc(-c2ccnc3ccnn23)n1`: the melting point fell in the range of 126 to 127 °C.

`c1ccc(Cc2c[nH]c(-c3ncc[nH]3)n2)cc1` had a melting point of 138 to 140 °C.

Molecule `CC(=O)SCC(C)C(=O)N1C(C(=O)O)CC2CCCCC21` (stereo not drawn) yielded a melting point of 152 to 154 °C.

Regarding `COc1cc2c(cc1OC)/C(=C\c1ccc(OP(=O)(O)O)cc1)C(=O)N2`, the melting point is 218 to 220 °C.

Molecule `COC1=CC(C)(O)C(CCC(=O)O)C=C1` (stereo not drawn) yielded a melting point of 142 °C.

In turn, `CSc1ccc(N)c([N+](=O)[O-])c1` came in with a melting point of 72 to 73 °C.

Molecule `O=c1cc(C(F)(F)F)c2c(O)cc(O)cc2o1` yielded a melting point of 212 to 214 °C.

Molecule `CC(C)C(=O)NC(=O)N1C(=O)Cc2cc(Cl)ccc21` yielded a melting point of 139 to 141 °C.

The molecule `CC(C)=Cc1ccc(/C=C/CCl)cc1` had a melting point of 48 to 50 °C.

Take `COc1cc(F)ccc1-c1ccc(S(=O)(=O)N2c3ccccc3CC2C(=O)O)cc1` (stereo not drawn): the melting point was 93 to 100 °C.

The molecule `COc1ccc(CS(=O)(=O)C(C)(Cc2ccccc2)C(=O)O)cc1` (stereo not drawn) registered a melting point of 58 to 59 °C.

Turning to `CC1CCNC(=C2C(=O)CC(C(C)C)CC2=O)N1` (stereo not drawn), the melting point lay in the range of 71 to 83 °C.

For `O=C(O)Cc1ccc(OCCNC(=O)C2Cc3ccccc3N2S(=O)(=O)c2ccc(-c3cccc(C(F)(F)F)c3)cc2)c(Cl)c1` (stereo not drawn), the melting point amounted to 96 °C.

The molecule `CC(=O)Nc1nc(CCc2ccc(NC3=NCCN3)cc2)c(Cc2ccc(S(C)(=O)=O)cc2)s1` registered a melting point of 139 to 140 °C.

Consider `CSc1ccc2cc[nH]c2c1`, for which the melting point lay in the range of 91 to 92 °C.

For `OCC1OC(n2cnc3c(NC(c4ccccc4)c4ccccc4)ncnc32)C(O)C1O` (stereo not drawn), the melting point was 89 to 96 °C.

Molecule `Cc1ccc(C(=S)C2CCC3C4CCc5cc(C(=O)O)ccc5C4CCC23C)cc1` (stereo not drawn) gave a melting point of 255 to 257 °C.

The molecule `CC(C)(C)OC(=O)NC1CCN(C(=O)C2CCN(C(=O)OCc3ccccc3)CC2)CC1` yielded a melting point of 150 to 152 °C.

`NC(=O)C1CCCc2c1c1cc(OCCCP(=O)(O)O)ccc1n2Cc1ccccc1` (stereo not drawn) displayed a melting point of 200 to 201 °C.

In the case of `O=c1c(CCCl)n[nH]c2ccccc12`, the melting point lay in the range of 201 to 203 °C.

Turning to `COC1=C(OC)C(=O)C2=C(CC(CCCCCCCCOC(C)=O)C2)C1=O`, the melting point lay within 47 to 48 °C.

The molecule `CCCCCCCCc1c(N)nc(S(C)(=O)=O)nc1CC` yielded a melting point of 90 to 92 °C.

`NC1N=C(c2ccccc2)C=CS1` (stereo not drawn) showed a melting point of 137 °C.

`O=c1[nH]c2ccc(O)cc2c(=O)n1CCN1CCC(c2c[nH]c3ccccc23)CC1` had a melting point of 258 °C.

For `COc1ccc2nc(COc3ccc(CC4SC(=O)N(C(c5ccccc5)(c5ccccc5)c5ccccc5)C4=O)cc3)n(C)c2n1` (stereo not drawn), the melting point fell in the range of 80 to 85 °C.

In turn, `O=C(NCc1cccc(O)c1)c1[nH]c2ccc(Cl)cc2c1S(=O)(=O)c1cccc(Cl)c1` displayed a melting point of 230 to 231 °C.

`C[C@H](NC1=NC=NC(N)(Cl)N1)c1ccccc1` (stereo partly drawn): the melting point lay within 163 to 164 °C.

Regarding `CC(C)n1cc(-c2ccc(C=O)cc2)c2c(N)ncnc21`, the melting point was in the range of 198 to 200 °C.

`Oc1ccc(-c2cc3c(Cl)c(O)ccc3o2)cc1` gave a melting point of 210 to 214 °C.

For `CC(=O)Nc1ccc(C(=O)Oc2ccccc2)c(OC(C)=O)c1`, the melting point is 142 to 143 °C.

As to `NC(=O)c1c(F)ccc(OCc2nc3cc(Br)ccc3s2)c1F`, the melting point lay in the range of 244 to 246 °C.

`CC1(C)C=C(c2ccc3ccccc3n2)c2cc(C#N)ccc2O1`: the melting point was in the range of 102 to 104 °C.

Molecule `O=CN(Cc1cccs1)C1(c2ccc(Cl)cc2)CCC1` gave a melting point of 114 to 119 °C.

`CC(C)N[C@H](CO)Cc1ccccc1` had a melting point of 65 to 66 °C.

`CC(=O)OCC(N=O)C(C)(C)Cl` (stereo not drawn) gave a melting point of 117 to 119 °C.

`CC(C)(C)OC(=O)NCC(=O)Nc1ccc(Nc2cccc3c2C(=O)c2ccccc2C3=O)cc1` registered a melting point of 171 °C.

Molecule `N#C[C@@H](NCc1ccccc1)[C@@H]1CSC(=O)N1Cc1ccccc1` had a melting point of 131 to 132 °C.

`Cn1c(-c2ccc(OC3CCN(C4CCC4)CC3)cc2)nc2ccccc2c1=O` gave a melting point of 168 to 171 °C.

`Cc1cc2oc(S(=O)(=O)N=CN(C)C)cc2cn1` showed a melting point of 175 to 177 °C.

`O=c1[nH]c2cc(Cl)ccc2n1CCCBr` gave a melting point of 162 °C.

In turn, `c1ccc(COc2ccc3nc(-c4ccc(C56CC7CC(CC(C7)C5)C6)c(OCc5ccccc5)c4)[nH]c3c2)cc1` showed a melting point of 203 °C.

The molecule `COc1cccc(OC)c1C(=O)P(CC(C)C)C(=O)c1c(OC)cccc1OC` had a melting point of 138 to 140 °C.

Take `CCc1cccc(CC)c1NC(=O)N(CC1CCCCC1)C1CCC(c2ccccc2)CC1` (stereo not drawn): the melting point lay in the range of 166 to 168 °C.

`CC(C)(C)OC(=O)NCCn1cc(COc2ccc(C3=NC(=Nc4[nH]c(-c5ccc(O)cc5)cc4-c4ccccc4)C(c4ccccc4)=C3)cc2)nn1`: the melting point was in the range of 128 to 130 °C.

The molecule `CC(C)(C)OC(=O)N1CCN(C2CCN(c3ccc(N)cc3C#N)CC2)CC1` returned a melting point of 172 °C.

In turn, `CC(=O)OCC1=C(C(=O)O)N2C(=O)C(NC(=O)Cn3ccnc3S(C)(=O)=O)C2SC1` (stereo not drawn) had a melting point of 223 °C.

With `O=C1Nc2ccc(Cl)cc2N2CCNCC12` (stereo not drawn), the melting point is 300 to 303 °C.

As a reminder, the melting point is the temperature, or range, at which the solid turns liquid.
